Measured values from patent US12427210B2, “Compounds comprising a fibroblast activation protein ligand and use thereof” (priority 2019, dated 2025).
Like-named read-outs stand apart in the source and are kept apart here. Numbered stars: 1 amine (or outer) side, 2 acyl side, 3 side chain; on linkers, the order of the positions; unused ones are H or OH. Bridge positions count the residues as written; N and C are the ends. Peptide text beside a SMILES is read from it. * marks the point of attachment. X1 = O=C(O)CN1CCN(CC(=O)O)CCN(CC(=O)N2CCN(Cc3cc(C[*:1])cc(C[*:2])c3)CC2)CCN(CC(=O)O)CC1; Hexanoyl = CCCCCC(=O)*

Columns and labels:
Na+ channel (site 2) = assay: SafetyScreen44 Na+ channel (site 2) (antagonist radioligand); assay type: binding; conditions: 10 μM
KV channel = conditions: 10 μM
[1] = tested on: serine protease NS3 (a.a. 3-181) from Hepatitis C virus genotype 1b (mutant D168V)
[2] = tested on: serine protease NS3 (a.a. 3-181) from Hepatitis C virus genotype 1b (mutant R155K)
CB1 (h) = CB1 (h) (Homo sapiens, UniProt P21554); assay: biochemical; conditions: read-out: % Inhibition of Specific Binding
M3 (h) = M3 (h) (Homo sapiens, UniProt P20309); assay: biochemical; conditions: read-out: % Inhibition of Specific Binding
5-HT1A (h) = 5-HT1A (h) (Homo sapiens, UniProt P08908); assay: biochemical; conditions: read-out: % Inhibition of Specific Binding
5-HT1B (h) = 5-HT1B (h) (Homo sapiens, UniProt P28222); assay: biochemical; conditions: read-out: % Inhibition of Specific Binding
5-HT2A (h) = 5-HT2A (h) (Homo sapiens, UniProt P28223); assay: biochemical; conditions: read-out: % Inhibition of Specific Binding
5-HT3 (h) = 5-HT3 (h) (Homo sapiens, UniProt P46098); assay: biochemical; conditions: read-out: % Inhibition of Specific Binding
GR (h) = GR (h) (Homo sapiens, UniProt P04150); assay: biochemical; conditions: read-out: % Inhibition of Specific Binding
V1a (h) = V1a (h) (Homo sapiens, UniProt P37288); assay: biochemical; conditions: read-out: % Inhibition of Specific Binding
PDE3A (h) = PDE3A (h) (Homo sapiens, UniProt Q14432); assay: biochemical; conditions: read-out: % Inhibition of Specific Binding
Caspase-7 = target: T1, Caspase-7 (Homo sapiens, UniProt P55210); assay: biochemical; conditions: read-out: Percentage inhibition (%)
T1 sequence (P55210 24-198 limits assumed): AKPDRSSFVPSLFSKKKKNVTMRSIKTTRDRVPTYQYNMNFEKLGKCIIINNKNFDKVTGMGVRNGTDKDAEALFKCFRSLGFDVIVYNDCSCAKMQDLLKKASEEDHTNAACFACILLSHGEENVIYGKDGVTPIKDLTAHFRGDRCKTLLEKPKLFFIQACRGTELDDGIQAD
T1 sequence (P55210 207-303 limits assumed): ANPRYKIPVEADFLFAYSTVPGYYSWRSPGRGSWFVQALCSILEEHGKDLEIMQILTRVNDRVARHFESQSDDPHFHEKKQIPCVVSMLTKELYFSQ

Cathepsin B = Cathepsin B (Homo sapiens, UniProt P07858); assay: biochemical; conditions: read-out: Percentage inhibition (%)
Cathepsin F = target: T2, Cathepsin F (Homo sapiens, UniProt Q9UBX1); assay: biochemical; conditions: read-out: Percentage inhibition (%)
T2 sequence (Q9UBX1 271-484): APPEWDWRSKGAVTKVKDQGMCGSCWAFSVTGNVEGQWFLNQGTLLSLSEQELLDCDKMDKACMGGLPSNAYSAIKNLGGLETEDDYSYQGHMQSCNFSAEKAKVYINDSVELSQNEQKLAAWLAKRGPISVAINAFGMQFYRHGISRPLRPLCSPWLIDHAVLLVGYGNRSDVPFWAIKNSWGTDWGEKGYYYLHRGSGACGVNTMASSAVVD

Cathepsin S = Cathepsin S (Homo sapiens, UniProt P25774); assay: biochemical; conditions: read-out: Percentage inhibition (%)
Cathepsin V = Cathepsin V (Homo sapiens, UniProt O60911); assay: biochemical; conditions: read-out: Percentage inhibition (%)
[3] = target: T3, Ubiquitin carboxyl-terminal hydrolase 2 (Homo sapiens, UniProt O75604); assay: biochemical; conditions: read-out: Percentage inhibition (%)
T3 sequence (O75604 1-605): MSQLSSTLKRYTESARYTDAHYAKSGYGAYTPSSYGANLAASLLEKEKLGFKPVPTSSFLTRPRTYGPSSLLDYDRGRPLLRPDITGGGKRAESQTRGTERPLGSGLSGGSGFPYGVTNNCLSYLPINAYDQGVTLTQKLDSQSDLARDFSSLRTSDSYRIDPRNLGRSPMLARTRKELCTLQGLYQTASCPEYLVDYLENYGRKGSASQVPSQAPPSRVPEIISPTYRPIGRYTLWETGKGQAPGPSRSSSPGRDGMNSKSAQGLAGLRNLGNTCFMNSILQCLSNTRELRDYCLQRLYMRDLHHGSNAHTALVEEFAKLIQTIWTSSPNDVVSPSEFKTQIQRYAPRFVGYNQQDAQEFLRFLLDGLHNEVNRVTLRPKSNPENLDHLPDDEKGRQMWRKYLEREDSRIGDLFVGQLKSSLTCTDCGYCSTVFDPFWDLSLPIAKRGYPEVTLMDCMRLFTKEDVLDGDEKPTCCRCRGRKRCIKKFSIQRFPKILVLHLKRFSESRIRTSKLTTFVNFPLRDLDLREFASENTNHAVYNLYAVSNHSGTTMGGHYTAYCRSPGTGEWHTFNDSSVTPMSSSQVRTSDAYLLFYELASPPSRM

FAP = FAP (Homo sapiens, UniProt Q12884); assay: biochemical; conditions: read-out: Percentage inhibition (%)
Matrix metalloprotease1 = target: T4, Matrix metalloprotease1 (Homo sapiens, UniProt P03956); assay: biochemical; conditions: read-out: Percentage inhibition (%)
T4 sequence (P03956 100-469): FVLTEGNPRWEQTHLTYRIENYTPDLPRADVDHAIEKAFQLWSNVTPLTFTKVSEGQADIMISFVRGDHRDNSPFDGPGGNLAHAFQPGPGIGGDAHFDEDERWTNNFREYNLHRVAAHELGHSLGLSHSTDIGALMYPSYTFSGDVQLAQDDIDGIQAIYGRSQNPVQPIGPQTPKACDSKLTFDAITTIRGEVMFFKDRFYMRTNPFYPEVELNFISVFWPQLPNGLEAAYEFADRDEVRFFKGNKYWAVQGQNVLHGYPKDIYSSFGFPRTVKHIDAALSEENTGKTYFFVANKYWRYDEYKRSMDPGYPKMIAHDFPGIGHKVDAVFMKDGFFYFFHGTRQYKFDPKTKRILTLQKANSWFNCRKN

Chain of FAP (Q12884 whole entry): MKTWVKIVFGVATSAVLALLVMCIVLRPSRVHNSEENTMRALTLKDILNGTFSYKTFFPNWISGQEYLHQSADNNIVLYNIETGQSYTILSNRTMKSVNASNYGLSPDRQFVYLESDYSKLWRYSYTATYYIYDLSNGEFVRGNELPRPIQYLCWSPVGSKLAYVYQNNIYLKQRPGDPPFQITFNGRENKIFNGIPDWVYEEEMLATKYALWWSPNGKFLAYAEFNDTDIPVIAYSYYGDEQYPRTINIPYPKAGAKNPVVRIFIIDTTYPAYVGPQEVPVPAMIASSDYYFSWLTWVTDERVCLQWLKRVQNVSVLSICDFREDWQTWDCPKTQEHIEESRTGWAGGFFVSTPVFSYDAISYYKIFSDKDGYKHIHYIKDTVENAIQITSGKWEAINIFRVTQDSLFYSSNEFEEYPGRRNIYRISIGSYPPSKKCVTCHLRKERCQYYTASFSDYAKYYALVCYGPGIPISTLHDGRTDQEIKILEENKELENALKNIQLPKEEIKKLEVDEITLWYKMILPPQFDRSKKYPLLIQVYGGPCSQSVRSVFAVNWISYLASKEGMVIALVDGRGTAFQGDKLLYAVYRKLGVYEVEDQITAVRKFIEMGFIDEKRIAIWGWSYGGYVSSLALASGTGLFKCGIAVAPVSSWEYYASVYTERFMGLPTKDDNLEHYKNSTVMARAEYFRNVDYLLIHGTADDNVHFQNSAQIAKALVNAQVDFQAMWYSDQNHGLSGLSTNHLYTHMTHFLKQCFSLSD
Chain of Cathepsin S (P25774 115-331): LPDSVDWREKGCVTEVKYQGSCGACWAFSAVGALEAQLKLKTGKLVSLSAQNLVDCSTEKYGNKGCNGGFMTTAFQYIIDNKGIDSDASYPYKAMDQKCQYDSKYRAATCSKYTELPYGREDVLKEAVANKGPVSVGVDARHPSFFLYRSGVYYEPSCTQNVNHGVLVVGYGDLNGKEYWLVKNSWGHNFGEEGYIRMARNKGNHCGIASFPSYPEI
Chain of Cathepsin V (O60911 114-334, species assumed): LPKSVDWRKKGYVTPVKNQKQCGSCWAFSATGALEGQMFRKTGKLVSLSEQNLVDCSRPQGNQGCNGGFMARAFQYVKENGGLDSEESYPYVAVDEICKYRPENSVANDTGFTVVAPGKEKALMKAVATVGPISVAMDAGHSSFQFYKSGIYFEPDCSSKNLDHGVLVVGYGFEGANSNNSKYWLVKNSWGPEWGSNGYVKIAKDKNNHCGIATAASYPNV
Chain of 5-HT3 (h) (P46098 24-478): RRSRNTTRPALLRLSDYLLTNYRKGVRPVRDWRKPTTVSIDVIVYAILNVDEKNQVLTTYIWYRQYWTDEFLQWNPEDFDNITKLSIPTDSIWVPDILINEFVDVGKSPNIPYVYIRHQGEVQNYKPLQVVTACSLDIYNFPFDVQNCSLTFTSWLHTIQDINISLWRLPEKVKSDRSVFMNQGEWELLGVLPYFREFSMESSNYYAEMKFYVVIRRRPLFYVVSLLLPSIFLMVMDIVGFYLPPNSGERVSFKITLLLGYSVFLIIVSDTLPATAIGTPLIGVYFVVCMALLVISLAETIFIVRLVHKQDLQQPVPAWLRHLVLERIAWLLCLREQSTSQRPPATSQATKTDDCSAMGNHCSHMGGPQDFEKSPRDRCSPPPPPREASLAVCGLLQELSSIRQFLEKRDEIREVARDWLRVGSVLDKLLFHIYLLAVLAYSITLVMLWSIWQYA
Chain of M3 (h) (P20309 whole entry): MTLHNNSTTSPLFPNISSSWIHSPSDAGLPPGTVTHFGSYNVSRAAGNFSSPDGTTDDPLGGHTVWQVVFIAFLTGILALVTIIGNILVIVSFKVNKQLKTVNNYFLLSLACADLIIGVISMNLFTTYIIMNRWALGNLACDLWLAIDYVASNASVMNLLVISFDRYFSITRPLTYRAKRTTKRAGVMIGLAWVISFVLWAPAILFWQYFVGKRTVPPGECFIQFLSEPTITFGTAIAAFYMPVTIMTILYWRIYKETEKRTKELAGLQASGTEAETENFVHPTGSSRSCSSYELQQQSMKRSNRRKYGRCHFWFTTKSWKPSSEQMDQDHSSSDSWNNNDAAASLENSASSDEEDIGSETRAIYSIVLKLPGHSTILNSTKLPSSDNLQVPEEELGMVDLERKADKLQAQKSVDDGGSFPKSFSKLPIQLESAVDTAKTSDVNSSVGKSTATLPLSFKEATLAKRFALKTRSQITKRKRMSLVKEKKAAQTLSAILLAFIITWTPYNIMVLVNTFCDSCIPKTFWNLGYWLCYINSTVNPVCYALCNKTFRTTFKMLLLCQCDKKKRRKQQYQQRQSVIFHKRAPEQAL
Chain of 5-HT2A (h) (P28223 whole entry): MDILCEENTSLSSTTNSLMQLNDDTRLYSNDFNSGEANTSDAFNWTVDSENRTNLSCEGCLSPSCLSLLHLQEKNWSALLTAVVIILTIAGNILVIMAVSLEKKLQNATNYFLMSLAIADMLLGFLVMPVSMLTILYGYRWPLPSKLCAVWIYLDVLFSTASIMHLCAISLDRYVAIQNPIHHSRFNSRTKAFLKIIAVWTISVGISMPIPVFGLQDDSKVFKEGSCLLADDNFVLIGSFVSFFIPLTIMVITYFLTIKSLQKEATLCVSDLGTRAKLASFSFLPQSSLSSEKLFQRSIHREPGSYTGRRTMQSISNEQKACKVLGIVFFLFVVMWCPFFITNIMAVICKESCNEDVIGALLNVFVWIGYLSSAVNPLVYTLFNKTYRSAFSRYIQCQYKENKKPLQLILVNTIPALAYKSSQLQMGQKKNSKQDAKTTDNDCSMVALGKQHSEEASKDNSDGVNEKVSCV
Chain of CB1 (h) (P21554 whole entry): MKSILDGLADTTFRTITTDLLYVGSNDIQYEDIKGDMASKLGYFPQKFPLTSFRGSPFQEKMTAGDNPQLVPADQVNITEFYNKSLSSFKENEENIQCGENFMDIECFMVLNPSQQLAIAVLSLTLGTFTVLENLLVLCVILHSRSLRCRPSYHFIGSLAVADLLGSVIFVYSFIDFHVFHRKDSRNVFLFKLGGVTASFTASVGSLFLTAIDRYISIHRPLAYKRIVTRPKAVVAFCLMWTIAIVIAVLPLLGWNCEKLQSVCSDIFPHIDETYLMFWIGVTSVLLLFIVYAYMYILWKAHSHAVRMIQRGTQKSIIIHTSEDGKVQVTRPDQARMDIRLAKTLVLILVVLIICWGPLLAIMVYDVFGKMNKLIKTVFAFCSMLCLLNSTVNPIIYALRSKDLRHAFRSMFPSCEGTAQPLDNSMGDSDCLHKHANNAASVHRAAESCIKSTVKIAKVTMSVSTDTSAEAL
Chain of GR (h) (P04150 whole entry): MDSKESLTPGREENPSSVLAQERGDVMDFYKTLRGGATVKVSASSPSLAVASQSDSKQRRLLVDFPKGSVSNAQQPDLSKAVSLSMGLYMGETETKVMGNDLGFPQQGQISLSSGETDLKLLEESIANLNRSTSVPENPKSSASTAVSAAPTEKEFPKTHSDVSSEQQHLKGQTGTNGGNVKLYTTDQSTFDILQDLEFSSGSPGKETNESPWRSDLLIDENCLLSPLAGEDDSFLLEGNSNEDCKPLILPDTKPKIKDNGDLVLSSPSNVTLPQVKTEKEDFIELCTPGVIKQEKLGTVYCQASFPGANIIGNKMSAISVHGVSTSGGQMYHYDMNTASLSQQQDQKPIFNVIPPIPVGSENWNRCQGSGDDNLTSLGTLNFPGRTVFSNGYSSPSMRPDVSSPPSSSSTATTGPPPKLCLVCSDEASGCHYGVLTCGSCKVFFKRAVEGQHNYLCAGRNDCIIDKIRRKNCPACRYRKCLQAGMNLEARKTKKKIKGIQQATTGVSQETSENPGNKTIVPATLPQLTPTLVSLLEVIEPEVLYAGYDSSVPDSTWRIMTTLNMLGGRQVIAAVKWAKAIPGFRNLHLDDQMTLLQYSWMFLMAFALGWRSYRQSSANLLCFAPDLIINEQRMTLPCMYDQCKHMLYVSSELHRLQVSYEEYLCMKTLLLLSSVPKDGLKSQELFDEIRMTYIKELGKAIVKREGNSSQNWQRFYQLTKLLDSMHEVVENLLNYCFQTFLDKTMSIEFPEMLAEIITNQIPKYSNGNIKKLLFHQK
Chain of V1a (h) (P37288 whole entry): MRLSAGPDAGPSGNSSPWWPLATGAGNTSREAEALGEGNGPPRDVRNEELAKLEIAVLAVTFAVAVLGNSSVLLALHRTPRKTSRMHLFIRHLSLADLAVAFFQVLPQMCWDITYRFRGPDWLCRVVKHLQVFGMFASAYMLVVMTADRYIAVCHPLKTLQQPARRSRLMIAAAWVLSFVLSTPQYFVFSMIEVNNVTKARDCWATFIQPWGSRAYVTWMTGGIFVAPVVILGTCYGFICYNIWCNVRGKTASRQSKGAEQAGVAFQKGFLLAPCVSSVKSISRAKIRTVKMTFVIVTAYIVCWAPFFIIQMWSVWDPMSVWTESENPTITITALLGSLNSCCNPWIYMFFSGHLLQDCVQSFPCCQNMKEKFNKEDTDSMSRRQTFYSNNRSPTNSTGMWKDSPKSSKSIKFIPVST
Chain of 5-HT1A (h) (P08908 whole entry): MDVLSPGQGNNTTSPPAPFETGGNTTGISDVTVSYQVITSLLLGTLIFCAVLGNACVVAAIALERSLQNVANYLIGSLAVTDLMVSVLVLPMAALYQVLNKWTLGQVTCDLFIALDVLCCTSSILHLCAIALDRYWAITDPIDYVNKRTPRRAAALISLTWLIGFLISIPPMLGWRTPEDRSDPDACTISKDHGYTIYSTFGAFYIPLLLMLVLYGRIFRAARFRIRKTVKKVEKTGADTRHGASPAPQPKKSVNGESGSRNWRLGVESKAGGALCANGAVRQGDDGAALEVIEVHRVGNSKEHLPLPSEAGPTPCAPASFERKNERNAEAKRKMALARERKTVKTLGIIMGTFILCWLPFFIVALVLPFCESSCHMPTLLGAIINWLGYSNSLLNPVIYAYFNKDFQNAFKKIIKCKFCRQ

Compound	% Inhibition of Specific Binding (Na+ channel (site 2)) [%]	% Inhibition of Specific Binding (KV channel) [%]	Percentage inhibition (%) ([1]; 1 μM)	Percentage inhibition (%) ([1]; 10 μM)	Percentage inhibition (%) ([2]; 1 μM)	Percentage inhibition (%) ([2]; 10 μM)	inhibition at 10 µM (CB1 (h)) [%]	inhibition at 10 µM (M3 (h)) [%]	inhibition at 10 µM (5-HT1A (h)) [%]	inhibition at 10 µM (5-HT1B (h)) [%]	inhibition at 10 µM (5-HT2A (h)) [%]	inhibition at 10 µM (5-HT3 (h)) [%]	inhibition at 10 µM (GR (h)) [%]	inhibition at 10 µM (V1a (h)) [%]	inhibition at 10 µM (PDE3A (h)) [%]	inhibition at 1 µM (Caspase-7) [%]	inhibition at 10 µM (Caspase-7) [%]	inhibition at 1 µM (Cathepsin B) [%]	inhibition at 10 µM (Cathepsin B) [%]	inhibition at 1 µM (Cathepsin F) [%]	further results
CCCCCC(=O)N[C@H]1CSCc2cc(cc(CN3CCN(C(=O)CN4CCN(CC(=O)O)CCN(CC(=O)O)CCN(CC(=O)O)CC4)CC3)c2)CSC[C@@H](C(=O)N[C@@H](CC(=O)O)C(N)=O)NC(=O)[C@H](Cc2ccccc2)NC(=O)[C@H](CCC(N)=O)NC(=O)[C@H]([C@@H](C)O)NC(=O)[C@@H]2CCCN2C(=O)[C@@H]2CCCN2C1=O [Compound 3BP-3407, Hex-[Cys(tMeBn(DOTA-PP))-Pro-Pro-Thr-Gln-Phe-Cys]-Asp-NH2] (Hexanoyl-CPPTQFCD-NH2; linker 1-7 via X1)	−7	−5	1	−6	−2	5	5	10	-3	-11	-2	2	-2	16	-3	-3	-3	26	36	-3	inhibition at 10 µM (Cathepsin F): -24%; inhibition at 1 µM (Cathepsin S): 3%; inhibition at 10 µM (Cathepsin S): 18%; inhibition at 1 µM (Cathepsin V): 1%; inhibition at 10 µM (Cathepsin V): -18%; inhibition at 1 µM [3]: 3%; inhibition at 10 µM [3]: 7%; inhibition at 1 µM (FAP): 98%; inhibition at 10 µM (FAP): 99%; inhibition at 1 µM (Matrix metalloprotease1): -1%; inhibition at 10 µM (Matrix metalloprotease1): 2%
CCCCCC(=O)N[C@H]1CSCc2cc(CSCCNC(=O)CN3CCN(CC(=O)O)CCN(CC(=O)O)CCN(CC(=O)O)CC3)cc(c2)CSC[C@@H](C(=O)O)NC(=O)[C@H](Cc2ccccc2)NC(=O)[C@H](CCC(N)=O)NC(=O)[C@H]([C@@H](C)O)NC(=O)[C@@H]2CCCN2C(=O)[C@@H]2CCCN2C1=O [Compound 3BP-3554, Hex-[Cys(tMeBn(DOTA-AET))-Pro-Pro-Thr-Gln-Phe-Cys]-OH]	14	4	−2	−17	−1	0	-7	1	-5	8	4	4	0	1	-37	-1	-7	1	2	-23	inhibition at 10 µM (Cathepsin F): -25%; inhibition at 1 µM (Cathepsin S): -10%; inhibition at 10 µM (Cathepsin S): -23%; inhibition at 1 µM (Cathepsin V): -1%; inhibition at 10 µM (Cathepsin V): -1%; inhibition at 1 µM [3]: 0%; inhibition at 10 µM [3]: -1%; inhibition at 1 µM (FAP): 97%; inhibition at 10 µM (FAP): 99%; inhibition at 1 µM (Matrix metalloprotease1): 1%; inhibition at 10 µM (Matrix metalloprotease1): -7%
